Test results from the Kinase Knowledgebase extract (Sharma et al. 2016).

Target: EGFR (human) (UniProt P00533)
Assay: Assessment of EGFR Kinase Activity

Sequence of EGFR (human) (P00533 whole entry, looked up): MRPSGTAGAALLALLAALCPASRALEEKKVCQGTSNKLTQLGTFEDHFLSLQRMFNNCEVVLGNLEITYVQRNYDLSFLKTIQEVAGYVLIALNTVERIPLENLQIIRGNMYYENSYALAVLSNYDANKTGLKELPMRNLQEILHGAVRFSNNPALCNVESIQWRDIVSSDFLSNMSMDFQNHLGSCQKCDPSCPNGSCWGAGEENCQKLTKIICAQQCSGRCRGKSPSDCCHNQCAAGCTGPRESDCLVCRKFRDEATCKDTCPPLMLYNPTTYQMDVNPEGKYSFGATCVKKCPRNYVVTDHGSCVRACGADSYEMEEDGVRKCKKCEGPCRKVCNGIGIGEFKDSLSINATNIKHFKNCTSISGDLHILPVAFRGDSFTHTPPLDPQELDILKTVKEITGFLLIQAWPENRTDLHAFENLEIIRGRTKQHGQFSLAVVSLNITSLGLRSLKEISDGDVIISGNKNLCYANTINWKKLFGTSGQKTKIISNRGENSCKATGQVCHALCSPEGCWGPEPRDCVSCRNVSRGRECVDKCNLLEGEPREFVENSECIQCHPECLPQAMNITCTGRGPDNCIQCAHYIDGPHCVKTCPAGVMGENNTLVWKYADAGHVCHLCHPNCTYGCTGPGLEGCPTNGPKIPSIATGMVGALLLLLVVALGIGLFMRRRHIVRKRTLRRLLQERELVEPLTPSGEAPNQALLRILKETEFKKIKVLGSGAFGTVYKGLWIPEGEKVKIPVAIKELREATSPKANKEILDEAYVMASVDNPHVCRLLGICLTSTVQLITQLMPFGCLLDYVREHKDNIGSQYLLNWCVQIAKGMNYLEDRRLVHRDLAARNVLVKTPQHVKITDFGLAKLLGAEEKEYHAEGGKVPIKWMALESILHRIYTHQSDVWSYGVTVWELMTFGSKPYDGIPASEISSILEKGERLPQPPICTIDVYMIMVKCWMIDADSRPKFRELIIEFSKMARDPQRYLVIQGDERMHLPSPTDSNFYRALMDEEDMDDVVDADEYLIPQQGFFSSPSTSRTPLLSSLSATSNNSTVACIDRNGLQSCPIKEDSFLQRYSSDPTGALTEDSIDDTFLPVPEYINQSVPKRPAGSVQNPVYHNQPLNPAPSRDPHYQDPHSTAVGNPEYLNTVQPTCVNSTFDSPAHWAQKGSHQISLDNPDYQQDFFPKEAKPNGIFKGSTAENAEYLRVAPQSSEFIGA

Compound	IC50 [nM]
CCOP1(=O)CCN(Cc2ccc(-c3ccc4ncnc(Nc5ccc(OCc6cccc(F)c6)c(Cl)c5)c4c3)o2)CC1	< 100
CP1(=O)CCN(Cc2ccc(-c3ccc4ncnc(Nc5ccc(Br)cc5F)c4c3)o2)CC1	100 to 1000
C#Cc1cc(Nc2ncnc3ccc(-c4ccc(CN5CCP(C)(=O)CC5)o4)cc23)ccc1OCc1cccc(F)c1	< 100
CP(C)(=O)CCNCC#Cc1ccc2ncnc(Nc3ccc(OCc4cccc(F)c4)c(Cl)c3)c2c1	< 100
CP(C)(=O)CNCc1ccc(-c2ccc3ncnc(Nc4ccc(OCc5cccc(F)c5)c(Cl)c4)c3c2)o1	< 100
C[C@@H](Nc1ncnc2ccc(-c3ccc(CN4CCP(C)(=O)CC4)o3)cc12)c1ccccc1	< 100
CP1(=O)CCN(Cc2ccc(-c3ccc4ncnc(Nc5ccc(OCc6cccc(F)c6)c(Br)c5)c4c3)o2)CC1	< 100
CC1(C)COP(=O)(CCNCc2ccc(-c3ccc4ncnc(Nc5ccc(OCc6cccc(F)c6)c(Cl)c5)c4c3)o2)OC1	< 100
CP1(=O)CCN(Cc2ccc(-c3ccc4ncnc(Nc5ccc(OCc6ccccn6)c(Cl)c5)c4c3)o2)CC1	< 100
CP(C)(=O)CCNCc1ccc(-c2ccc3ncnc(Nc4ccc5c(cnn5Cc5cccc(F)c5)c4)c3c2)o1	< 100
CP(C)(=O)CCN(CCO)Cc1ccc(-c2ccc3ncnc(Nc4ccc5c(cnn5Cc5cccc(F)c5)c4)c3c2)o1	< 100
CCN(CCP(C)(C)=O)Cc1ccc(-c2ccc3ncnc(Nc4ccc5c(cnn5Cc5cccc(F)c5)c4)c3c2)o1	< 100
COP(=O)(CCNCc1ccc(-c2ccc3ncnc(Nc4ccc(OCc5cccc(F)c5)c(Cl)c4)c3c2)o1)OC	< 100
CP1(=O)CCN(CC#Cc2ccc3ncnc(Nc4ccc(OCc5cccc(F)c5)c(Cl)c4)c3c2)CC1	< 100
CP1(=O)CCN(CCCc2ccc3ncnc(Nc4ccc(OCc5cccc(F)c5)c(Cl)c4)c3c2)CC1	< 100
Cc1cccc(COc2ccc(Nc3ncnc4ccc(-c5ccc(CN6CCP(C)(=O)CC6)o5)cc34)cc2Cl)n1	100 to 1000
CP1(=O)CCN(Cc2ccc(-c3ccc4ncnc(Nc5ccc(Br)c(Cl)c5F)c4c3)o2)CC1	< 100
CP1(=O)CCN(Cc2ccc(-c3ccc4ncnc(Nc5ccc(OCc6cccc[n+]6[O-])c(Cl)c5)c4c3)o2)CC1	< 100

Results, then the molecule that gave them:

IC50 [nM]	Compound
< 100	CP1(=O)CCN(Cc2ccc(-c3ccc4ncnc(Nc5ccc(OCc6cnccn6)c(Cl)c5)c4c3)o2)CC1
< 100	CP(C)(=O)CCNCc1ccc(-c2ccc3ncnc(Nc4ccc(OCc5cccc(F)c5)c(Cl)c4)c3c2)o1
< 100	Cc1cccc(COc2ccc(Nc3ncnc4ccc(-c5ccc(CN6CCP(C)(=O)CC6)o5)cc34)cc2Cl)[n+]1[O-]
< 100	CP1(=O)CCN(Cc2ccc(-c3ccc4ncnc(Nc5ccc(OCc6cccc(F)c6)c(Cl)c5)c4c3)o2)CC1
< 100	CP1(=O)CCN(Cc2ccc(-c3ccc4ncnc(Nc5ccc6c(cnn6Cc6cccc(F)c6)c5)c4c3)o2)CC1
< 100	Cc1ccc(Oc2ccc(Nc3ncnc4ccc(-c5ccc(CN6CCP(C)(=O)CC6)o5)cc34)cc2C)cn1
< 100	CP(C)(=O)CN1CCN(Cc2ccc(-c3ccc4ncnc(Nc5ccc(OCc6cccc(F)c6)c(Cl)c5)c4c3)o2)CC1
< 100	CP1(=O)CCN(Cc2ccc(-c3ccc4ncnc(Nc5cccc(Cl)c5F)c4c3)o2)CC1
< 100	CP1(=O)CCN(C/C=C/c2ccc3ncnc(Nc4ccc(OCc5cccc(F)c5)c(Cl)c4)c3c2)CC1
< 100	CP1(=O)CCN(CC#Cc2ccc3ncnc(Nc4ccc5c(cnn5Cc5cccc(F)c5)c4)c3c2)CC1
